The source made the active and inactive calls. How the calls were made is not given here.
Biological target: Nuclear receptor ROR-gamma (Homo sapiens) (UniProt P51449)
Assay: RORγ reporter activity suppression – cell-based, luminescence, dose response, selectivity assay for RORA inverse agonist project, late-stage follow-up (AID 463151)
Settings: cell-based RORG luciferase reporter

Chain of Nuclear receptor ROR-gamma (Homo sapiens) (P51449 whole entry, looked up): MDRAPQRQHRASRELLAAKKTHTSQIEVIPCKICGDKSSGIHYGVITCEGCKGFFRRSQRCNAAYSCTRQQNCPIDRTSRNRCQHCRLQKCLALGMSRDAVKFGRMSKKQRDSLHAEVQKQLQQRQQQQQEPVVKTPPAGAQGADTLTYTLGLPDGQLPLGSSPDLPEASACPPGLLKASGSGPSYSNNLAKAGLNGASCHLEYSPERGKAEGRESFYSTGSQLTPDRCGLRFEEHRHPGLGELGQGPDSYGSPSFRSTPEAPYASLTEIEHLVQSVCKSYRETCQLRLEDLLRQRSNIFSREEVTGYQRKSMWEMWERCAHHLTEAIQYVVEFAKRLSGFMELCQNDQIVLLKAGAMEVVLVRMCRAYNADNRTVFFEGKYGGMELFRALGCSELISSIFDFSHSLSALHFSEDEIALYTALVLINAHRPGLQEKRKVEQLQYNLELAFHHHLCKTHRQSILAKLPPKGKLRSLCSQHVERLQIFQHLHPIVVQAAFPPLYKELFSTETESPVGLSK

IC50: > 10 µM (inactive)
SMILES: O=S(=O)(Nc1ccc(C(O)(C(F)(F)F)C(F)(F)F)cc1)c1cccs1

Reference: PubChem BioAssay AID463151 (The Scripps Research Institute Molecular Screening Center, 2010)
